From patent US11311592B2, “Bauhinia extract and uses thereof” (Academia Sinica, priority 2015, dated 2022)

Test system: p62-RL-HEK cells
Experiment: Cell-based p62-Renilla luciferase reporter assay of autophagy activity
Design: species or system Human
Conditions: positive controls: 3-MA 5 μM, rapamycin 200 nM; 24 hr at 37° C.
Description: FIG. 3. Treatments with BVEE induces autophagy. A. GFP-LC3-HEK cells were treated with BVEE (50 μg/ml) at 37° C. for 24 h. An autophagy inducer, rapamycin, and an autophagy inhibitor, 3-MA, were included as controls. Clarified lysates containing equal amounts of proteins were resolved by SDS-PAGE and analyzed by Western blotting with anti-p62 (top panel), anti-LC3 (middle panel), and anti-GAPDH (bottom panel) antibodies. B. A stable cell line p62-RL-HEK that overexpresses Renilla luciferase-tagged p62 was treated with BVEE (50 μg/ml) at 37° C. for 24 h. Additional treatments with either rapamycin or 3-MA were included as controls. Renilla luciferase signal was determined by the addition of coelenterazine at equal volume to a final concentration of 5 μM. Luminescence emitted by DMSO-treated cells (Control) was referred to as 100% relative Renilla luciferase signal;
FIG. 12. The autophagy-inducing potency of extracts derived from B. variegate (BV) by using different solvents. The p62-RL-HEK cells were treated with or without B. variegate extract ([…]) at 37° C. for 24 h. Additional treatments with either rapamycin (RAP) or 3-MA were included as references. Renilla luciferase (Luc) activity was determined by the addition of coelenterazine to a final concentration of […]. Luminescence emitted by DMSO-treated cells (Control) was referred to as 100% relative Renilla luciferase signal. […]

Cn1cnc(N)c2ncnc1-2 [3-MA, 3-methyladenine]
luciferase signal of p62-RL-HEK cells: significant increase
